One compound from PMC5794925, “Expression and specificity of a chitin deacetylase from the nematophagous fungus Pochonia chlamydosporia potentially involved in pathogenicity” (Scientific Reports, 2018) can be followed below.

The assay addresses T1, PcCDA catalytic domain (Pochonia chlamydosporia, UniProt A0A179FW77).
T1 construct: gene VFPPC_13269
T1 sequence (A0A179FW77 94-309): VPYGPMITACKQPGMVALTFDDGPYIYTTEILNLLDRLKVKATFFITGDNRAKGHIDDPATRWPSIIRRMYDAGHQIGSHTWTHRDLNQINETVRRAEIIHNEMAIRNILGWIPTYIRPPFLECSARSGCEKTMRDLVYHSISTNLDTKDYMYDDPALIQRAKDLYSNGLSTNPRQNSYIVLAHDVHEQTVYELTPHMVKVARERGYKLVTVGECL
Kind of assay: HPLC-MS of deacetylated products. It is filed as biochemical. The settings on record: 0.2 mM substrate, 3.2 nM enzyme, 50 mM K2HPO4, 300 mM NaCl, pH 8.0, 37 °C; refolded with Zn2+.

Take `CC(=O)N[C@H]1[C@H](O[C@H]2[C@H](O)[C@@H](NC(C)=O)C(O)O[C@@H]2CO)O[C@H](CO)[C@@H](O[C@@H]2O[C@H](CO)[C@@H](O[C@@H]3O[C@H](CO)[C@@H](O)[C@H](O)[C@H]3NC(C)=O)[C@H](O)[C@H]2NC(C)=O)[C@@H]1O` (stereo partly shown) [A4, GlcNAc4]: the “HPLC-MS of deacetylated products” value is “With the A4 substrate, the enzyme was also active but slower than with the A5”.
